Source: patent US20180110754A1, “CENICRIVIROC FOR THE TREATMENT OF FIBROSIS” (Tobira Therapeutics, Inc., priority 2015, published 2018)
Read-outs that look alike come from different tables or passages of the source.

Legend:
[1] = test system: MCP-1, sCD14, hs-CRP, IL-6, D-dimer, fibrinogen; experiment: Study 202: biomarkers of inflammation and immune function; format: in vivo, human
Protocol: As an exploratory analysis, levels of inflammation biomarkers MCP-1, sCD14, high sensitivity C-reactive protein [hs-CRP], interleukin-6 [IL-6], D-dimer, and fibrinogen) were measured. Baseline values and changes from baseline at Week 24 and Week 48 of MCP-1, sCD14, hs-CRP, IL-6, D-dimer, and fibrinogen are summarized in Table 25.
The sCD14 samples were originally analyzed in 2 separate batches: Batch 1 included samples leading up to the Week 24 primary analysis and Batch 2 included Week 32 and Week 48 (end of study) samples. A repeat analysis of archived samples all analyzed in one batch was conducted for consistency in analysis across time points. To control for the effects of covariates, a linear mixed-model repeated-measures analysis was conducted on the changes from baseline in sCD14 (analysis dated September 2013).

[2] = Description: Subjects with a history of HIV-2, hepatitis B and/or C, cirrhosis of the liver or any known active or chronic active liver disease were excluded from the study.
Most AEs were mild or moderate (Grade 1 or Grade 2). […] None of the Grade ≥3 AEs (preferred terms) were reported in more than 1 subject.

In the case of `CCCCOCCOc1ccc(-c2ccc3c(c2)/C=C(/C(=O)Nc2ccc([S@@+]([O-])Cc4cncn4CCC)cc2)CCCN3CC(C)C)cc1` [CVC, (S)-8-[4-(2-Butoxyethoxy)phenyl]-1-isobutyl-N-(4-{[(1-propyl-1H-imidazol-5-yl)methyl]sulfinyl}phenyl)-1,2,3,4-tetrahydro-1-benzazocine-5-carboxamide], the “D-dimer baseline value, mean” value ([1]; CVC 100 mg) is reported as 187 ng/mL, the “D-dimer baseline value, median” value ([1]; CVC 100 mg) is reported as 150 ng/mL and the “D-dimer change from baseline at Week 24, mean” value ([1]; CVC 100 mg) is reported as -32 ng/mL. For the same molecule, the “D-dimer change from baseline at Week 24, median” value ([1]; CVC 100 mg) was -1.0 ng/mL, the “D-dimer change from baseline at Week 48, mean” value ([1]; CVC 100 mg) was -41 ng/mL and the “D-dimer change from baseline at Week 48, median” value ([1]; CVC 100 mg) was -1.0 ng/mL. The “Fibrinogen baseline value, mean” value ([1]; CVC 100 mg) was 236 mg/dL, the “Fibrinogen baseline value, median” value ([1]; CVC 100 mg) was 229 mg/dL and the “Fibrinogen change from baseline at Week 24, mean” value ([1]; CVC 100 mg) was -3 mg/dL. The “Fibrinogen change from baseline at Week 24, median” value ([1]; CVC 100 mg) was -14 mg/dL, the “Fibrinogen change from baseline at Week 48, mean” value ([1]; CVC 100 mg) was 11 mg/dL and the “Fibrinogen change from baseline at Week 48, median” value ([1]; CVC 100 mg) was 15 mg/dL. For the same molecule, the “IL-6 baseline value, mean” value ([1]; CVC 100 mg) was 2.51 pg/mL, the “IL-6 baseline value, median” value ([1]; CVC 100 mg) was 1.90 pg/mL and the “IL-6 change from baseline at Week 24, mean” value ([1]; CVC 100 mg) was 0.42 pg/mL. For the same molecule, the “IL-6 change from baseline at Week 24, median” value ([1]; CVC 100 mg) was 0.00 pg/mL, the “IL-6 change from baseline at Week 48, mean” value ([1]; CVC 100 mg) was 0.29 pg/mL and the “IL-6 change from baseline at Week 48, median” value ([1]; CVC 100 mg) was 0.00 pg/mL. The “MCP-1 baseline value, mean” value ([1]; CVC 100 mg) was 128 pg/mL, the “MCP-1 baseline value, median” value ([1]; CVC 100 mg) was 110 pg/mL and the “MCP-1 change from baseline at Week 24, mean” value ([1]; CVC 100 mg) was 493 pg/mL. For the same molecule, the “MCP-1 change from baseline at Week 24, median” value ([1]; CVC 100 mg) was 429 pg/mL, the “MCP-1 change from baseline at Week 48, mean” value ([1]; CVC 100 mg) was 636 pg/mL and the “MCP-1 change from baseline at Week 48, median” value ([1]; CVC 100 mg) was 523 pg/mL. The “hs-CRP baseline value, mean” value ([1]; CVC 100 mg) was 0.39 mg/dL, the “hs-CRP baseline value, median” value ([1]; CVC 100 mg) was 0.15 mg/dL and the “hs-CRP change from baseline at Week 24, mean” value ([1]; CVC 100 mg) was -0.16 mg/dL. The “hs-CRP change from baseline at Week 24, median” value ([1]; CVC 100 mg) was -0.03 mg/dL, the “hs-CRP change from baseline at Week 48, mean” value ([1]; CVC 100 mg) was -0.08 mg/dL and the “hs-CRP change from baseline at Week 48, median” value ([1]; CVC 100 mg) was -0.01 mg/dL. The “sCD14 (original values) baseline value, mean” value ([1]; CVC 100 mg) was 1.8e+06 pg/mL, the “sCD14 (original values) baseline value, median” value ([1]; CVC 100 mg) was 1.73e+06 pg/mL and the “sCD14 (original values) change from baseline at Week 12, mean” value ([1]; CVC 100 mg) was -140000 pg/mL. The “sCD14 (original values) change from baseline at Week 12, median” value ([1]; CVC 100 mg) was -160000 pg/mL, the “sCD14 (original values) change from baseline at Week 24, mean” value ([1]; CVC 100 mg) was -190000 pg/mL and the “sCD14 (original values) change from baseline at Week 24, median” value ([1]; CVC 100 mg) was -180000 pg/mL. The “sCD14 (original values) change from baseline at Week 32, mean” value ([1]; CVC 100 mg) was 110000 pg/mL, the “sCD14 (original values) change from baseline at Week 32, median” value ([1]; CVC 100 mg) was 120000 pg/mL and the “sCD14 (original values) change from baseline at Week 48, mean” value ([1]; CVC 100 mg) was 100000 pg/mL. The “sCD14 (original values) change from baseline at Week 48, median” value ([1]; CVC 100 mg) was 100000 pg/mL, the “D-dimer baseline value, mean” value ([1]; CVC 200 mg) was 184 ng/mL and the “D-dimer baseline value, median” value ([1]; CVC 200 mg) was 125 ng/mL. For the same molecule, the “D-dimer change from baseline at Week 24, mean” value ([1]; CVC 200 mg) was -64 ng/mL, the “D-dimer change from baseline at Week 24, median” value ([1]; CVC 200 mg) was -50 ng/mL and the “D-dimer change from baseline at Week 48, mean” value ([1]; CVC 200 mg) was -70 ng/mL. The “D-dimer change from baseline at Week 48, median” value ([1]; CVC 200 mg) was -50 ng/mL, the “Fibrinogen baseline value, mean” value ([1]; CVC 200 mg) was 248 mg/dL and the “Fibrinogen baseline value, median” value ([1]; CVC 200 mg) was 260 mg/dL. For the same molecule, the “Fibrinogen change from baseline at Week 24, mean” value ([1]; CVC 200 mg) was -7 mg/dL, the “Fibrinogen change from baseline at Week 24, median” value ([1]; CVC 200 mg) was -8 mg/dL and the “Fibrinogen change from baseline at Week 48, mean” value ([1]; CVC 200 mg) was -10 mg/dL. For the same molecule, the “Fibrinogen change from baseline at Week 48, median” value ([1]; CVC 200 mg) was -13 mg/dL, the “IL-6 baseline value, mean” value ([1]; CVC 200 mg) was 3.34 pg/mL and the “IL-6 baseline value, median” value ([1]; CVC 200 mg) was 1.90 pg/mL. The “IL-6 change from baseline at Week 24, mean” value ([1]; CVC 200 mg) was 0.81 pg/mL, the “IL-6 change from baseline at Week 24, median” value ([1]; CVC 200 mg) was 0.00 pg/mL and the “IL-6 change from baseline at Week 48, mean” value ([1]; CVC 200 mg) was -0.04 pg/mL. For the same molecule, the “IL-6 change from baseline at Week 48, median” value ([1]; CVC 200 mg) was 0.00 pg/mL, the “MCP-1 baseline value, mean” value ([1]; CVC 200 mg) was 153 pg/mL and the “MCP-1 baseline value, median” value ([1]; CVC 200 mg) was 137 pg/mL. For the same molecule, the “MCP-1 change from baseline at Week 24, mean” value ([1]; CVC 200 mg) was 753 pg/mL, the “MCP-1 change from baseline at Week 24, median” value ([1]; CVC 200 mg) was 695 pg/mL and the “MCP-1 change from baseline at Week 48, mean” value ([1]; CVC 200 mg) was 900 pg/mL. For the same molecule, the “MCP-1 change from baseline at Week 48, median” value ([1]; CVC 200 mg) was 756 pg/mL, the “hs-CRP baseline value, mean” value ([1]; CVC 200 mg) was 0.46 mg/dL and the “hs-CRP baseline value, median” value ([1]; CVC 200 mg) was 0.15 mg/dL. The “hs-CRP change from baseline at Week 24, mean” value ([1]; CVC 200 mg) was -0.04 mg/dL, the “hs-CRP change from baseline at Week 24, median” value ([1]; CVC 200 mg) was -0.04 mg/dL and the “hs-CRP change from baseline at Week 48, mean” value ([1]; CVC 200 mg) was -0.18 mg/dL. For the same molecule, the “hs-CRP change from baseline at Week 48, median” value ([1]; CVC 200 mg) was -0.04 mg/dL, the “sCD14 (original values) baseline value, mean” value ([1]; CVC 200 mg) was 1.88e+06 pg/mL and the “sCD14 (original values) baseline value, median” value ([1]; CVC 200 mg) was 1.86e+06 pg/mL. The “sCD14 (original values) change from baseline at Week 12, mean” value ([1]; CVC 200 mg) was -230000 pg/mL, the “sCD14 (original values) change from baseline at Week 12, median” value ([1]; CVC 200 mg) was -210000 pg/mL and the “sCD14 (original values) change from baseline at Week 24, mean” value ([1]; CVC 200 mg) was -230000 pg/mL. The “sCD14 (original values) change from baseline at Week 24, median” value ([1]; CVC 200 mg) was -190000 pg/mL, the “sCD14 (original values) change from baseline at Week 32, mean” value ([1]; CVC 200 mg) was -20000 pg/mL and the “sCD14 (original values) change from baseline at Week 32, median” value ([1]; CVC 200 mg) was -20000 pg/mL. The “sCD14 (original values) change from baseline at Week 48, mean” value ([1]; CVC 200 mg) was -40000 pg/mL, the “sCD14 (original values) change from baseline at Week 48, median” value ([1]; CVC 200 mg) was -40000 pg/mL and the Deaths ([2]; All CVC (N = 115)) was 0 n. For the same molecule, the “SAE: Suicidal ideation, n subjects” value ([2]; All CVC (N = 115), EFV (N = 28), through Week 48) was 0, the “Grade 3 or 4 AE: Suicidal ideation, n subjects” value ([2]; All CVC (N = 115), EFV (N = 28; Grade 4 event)) was 0 and the “Any AE, n subjects” value ([2]; CVC 100 mg (N = 58)) was 51. The “Any Grade 3 AE, n subjects” value ([2]; CVC 100 mg (N = 58)) was 2, the “Any Grade 4 AE, n subjects” value ([2]; CVC 100 mg (N = 58)) was 0 and the Deaths ([2]; CVC 100 mg (N = 58)) was 0 n. For the same molecule, the “Grade 3 or 4 AE: Abdominal pain, n subjects” value ([2]; CVC 100 mg (N = 58)) was 1.
